Assay results: ChEMBL document CHEMBL4368855, “Novel tricyclic glycal-based TRIB1 inducers that reprogram LDL metabolism in hepatic cells” (Medchemcomm, 2018)
In brackets after ≈: the same amount, converted by molar mass. Blank lines part the entries; values can stand above or below the molecule they belong to. Activity calls are given as the source filed them. The calls are words filed in the database; no cut-off is given here.

Assays:
HepG2 [1] = test: Up regulation of LDLR gene expression in human HepG2 cells measured after 6 hrs by qRT-PCR analysis relative to control; assay type: functional
HepG2 [2] = test: Up regulation of TRIB1 gene expression in human HepG2 cells measured after 6 hrs by qRT-PCR analysis relative to control; assay type: functional
HepG2 [3] = test: Up regulation of TRIB1 gene expression in human HepG2 cells measured after 6 hrs by qRT-PCR analysis; assay type: functional, cell-based; conditions: HepG2, 6 h
HepG2 [4] = test: Up regulation of LDLR gene expression in human HepG2 cells measured after 6 hrs by qRT-PCR analysis; assay type: functional, cell-based; conditions: HepG2, 6 h
HepG2 [5] = test: Down regulation of PCSK9 gene expression in human HepG2 cells measured after 24 hrs by qRT-PCR analysis; assay type: functional, cell-based; conditions: HepG2, 24 h
[6] = Solubility of the compound in 1% DMSO/phosphate buffered saline at pH 7.4 incubated for 18 hrs under shaking condition by UPLC/MS analysis; assay type: physicochemical
[7] = Stability in mouse liver microsomes assessed as parent compound remaining at 1 uM incubated for 60 mins under shaking condition by UPLC/MS analysis; assay type: ADME, Microsome; conditions: read-out: Stability
[8] = Tmax in C57BL/6 mouse plasma at 10 mg/kg, ip administered as single dose by mass spectrometry; assay type: ADME, organism-based
[9] = Cmax in C57BL/6 mouse plasma at 10 mg/kg, ip administered as single dose by mass spectrometry; assay type: ADME, organism-based; parameters: dose 10 mg/kg, route intraperitoneal
[10] = AUC (infinity) in C57BL/6 mouse plasma at 10 mg/kg, ip administered as single dose by mass spectrometry; assay type: ADME, organism-based; parameters: dose 10 mg/kg, route intraperitoneal, time infinity; conditions: in vivo
[11] = Half life in C57BL/6 mouse plasma at 10 mg/kg, ip administered as single dose by mass spectrometry; assay type: ADME, organism-based
[12] = Clearance in C57BL/6 mouse plasma at 10 mg/kg, ip administered as single dose by mass spectrometry; assay type: ADME, organism-based
[13] = Apparent volume of distribution in C57BL/6 mouse plasma at 10 mg/kg, ip administered as single dose by mass spectrometry; assay type: ADME, organism-based; conditions: in vivo
[14] = Tmax in C57BL/6 mouse liver at 10 mg/kg, ip administered as single dose by mass spectrometry; assay type: ADME, organism-based
[15] = Cmax in C57BL/6 mouse liver at 10 mg/kg, ip administered as single dose by mass spectrometry; assay type: ADME, organism-based; parameters: dose 10 mg/kg, route intraperitoneal
[16] = AUC (infinity) in C57BL/6 mouse liver at 10 mg/kg, ip administered as single dose by mass spectrometry; assay type: ADME, organism-based; parameters: dose 10 mg/kg, route intraperitoneal, time infinity; conditions: in vivo
[17] = Half life in C57BL/6 mouse liver at 10 mg/kg, ip administered as single dose by mass spectrometry; assay type: ADME, organism-based
[18] = Apparent volume of distribution in C57BL/6 mouse liver at 10 mg/kg, ip administered as single dose by mass spectrometry; assay type: ADME, organism-based; conditions: in vivo
[19] = Unbound fraction in C57BL/6 mouse liver at 10 mg/kg, ip administered as single dose by mass spectrometry; assay type: ADME, organism-based
HepG2 [20] = test: Induction of TRIB1 expression in human HepG2 cells measured after overnight incubation by qRT-PCR analysis; assay type: functional, cell-based
HepG2 [21] = test: Induction of LDLR expression in human HepG2 cells by luminex assay; assay type: functional, cell-based
HepG2 [22] = test: Inhibition of PCSK9 secretion in human HepG2 cells by luminex assay; assay type: functional, cell-based
HepG2 [23] = test: Down regulation of PCSK9 expression in human HepG2 cells after 24 hrs by ELISA; assay type: functional, cell-based
HepG2 [24] = test: Up regulation of LDLR expression in human HepG2 cells after 24 hrs by ELISA; assay type: functional, cell-based
HepG2 [25] = test: Induction of LDL uptake in human HepG2 cells preincubated for 20 hrs followed by BODIPY-FL-LDL addition and measured after 5 hrs by Hoechst 33342 staining based microscopic analysis; assay type: functional, cell-based

EC50 (HepG2 [3]): 720 nM
EC50 (HepG2 [4]): 500 nM
EC50 (HepG2 [5]): 100 nM
solubility kinetic at 18 h [6]: 6 µM (≈ 3.37 µg/mL)
remaining at 1 h, 1 µM [7]: 0%
SMILES: CN1C(=O)c2cc(NC(=O)c3ccc(C(F)(F)F)cc3)ccc2OC[C@@H]2O[C@H](CNC(=O)CC(C)(C)C)CC[C@@H]21
max activation (HepG2 [1]): 1.9
max activation (HepG2 [2]): 6.6

EC50 (HepG2 [3]): 320 nM
EC50 (HepG2 [4]): 1450 nM
EC50 (HepG2 [5]): 95 nM
solubility kinetic at 18 h [6]: 27.5 µM (≈ 16.1 µg/mL)
remaining at 1 h, 1 µM [7]: 18%
Tmax [8]: 1 h
Cmax [9]: 3050 ng/mL
AUC [10]: 6464 µg/L/h
half-life [11]: 1.46 h
CL/F [12]: 25.8 mL/min/kg
Vz [13]: 3.25 L/kg
Tmax [14]: 1 h
Cmax [15]: 13800 ng/mL
AUC [16]: 35928 µg/L/h
half-life [17]: 1.78 h
Vz [18]: 0.72 L/kg
fraction unbound [19]: 0.02
SMILES: CN1C(=O)c2cc(NC(=O)c3ccc(C(F)(F)F)cc3)ccc2OC[C@@H]2O[C@H](CNc3nnc(C4CCC4)o3)CC[C@@H]21
max activation (HepG2 [1]): 3.8
max activation (HepG2 [2]): 4.6

EC50 (HepG2 [20]): 2030 nM
SMILES: CN1C(=O)c2cc(NC(=O)c3ccc(C(F)(F)F)cc3)ccc2OC[C@@H]2O[C@@H](CC(=O)NC3Cc4ccccc4C3)CC[C@@H]21
Activity (HepG2 [21]): Active
inhibition (HepG2 [22]): Active
Activity (HepG2 [23]): Active
Activity (HepG2 [24]): Active
Activity (HepG2 [25]): Active

EC50 (HepG2 [20]): > 25000 nM
SMILES: CN1C(=O)c2cc(NC(=O)c3ccc(C(F)(F)F)cc3)ccc2OC[C@H]2O[C@@H](CC(=O)NC3Cc4ccccc4C3)CC[C@@H]21
